The source made the active and inactive calls. No cut-off for these calls is given here.
Assays:
[1] = target: T1, Peroxisome proliferator-activated receptor alpha (Homo sapiens) (UniProt Q07869); experiment: Agonist activity at yeast Gal4-fused human PPARalpha LBD transfected in human HepG2 cells assessed as transactivation by measuring beta-galactosidase activity incubated for 20 hrs by luminometry relative to control; type: cell-based
T1 sequence (whole entry): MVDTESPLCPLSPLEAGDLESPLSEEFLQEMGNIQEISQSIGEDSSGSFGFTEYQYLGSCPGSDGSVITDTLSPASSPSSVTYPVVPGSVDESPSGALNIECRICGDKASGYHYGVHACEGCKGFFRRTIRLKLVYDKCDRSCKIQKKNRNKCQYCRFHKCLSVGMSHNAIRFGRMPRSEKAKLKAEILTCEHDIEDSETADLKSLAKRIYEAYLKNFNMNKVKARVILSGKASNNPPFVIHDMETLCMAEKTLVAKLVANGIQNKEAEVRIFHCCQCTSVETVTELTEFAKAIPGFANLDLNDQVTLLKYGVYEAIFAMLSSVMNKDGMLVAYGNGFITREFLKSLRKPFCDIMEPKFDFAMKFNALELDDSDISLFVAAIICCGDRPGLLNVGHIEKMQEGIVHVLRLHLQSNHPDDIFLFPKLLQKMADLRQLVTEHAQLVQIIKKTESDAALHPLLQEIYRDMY

[2] = target: T2, Peroxisome proliferator-activated receptor gamma (Homo sapiens, UniProt P37231); experiment: Agonist activity at yeast Gal4-fused human PPARgamma transfected in human HepG2 cells assessed as transactivation by measuring beta-galactosidase activity incubated for 20 hrs by luminometry; type: cell-based
T2 sequence (P37231 whole entry): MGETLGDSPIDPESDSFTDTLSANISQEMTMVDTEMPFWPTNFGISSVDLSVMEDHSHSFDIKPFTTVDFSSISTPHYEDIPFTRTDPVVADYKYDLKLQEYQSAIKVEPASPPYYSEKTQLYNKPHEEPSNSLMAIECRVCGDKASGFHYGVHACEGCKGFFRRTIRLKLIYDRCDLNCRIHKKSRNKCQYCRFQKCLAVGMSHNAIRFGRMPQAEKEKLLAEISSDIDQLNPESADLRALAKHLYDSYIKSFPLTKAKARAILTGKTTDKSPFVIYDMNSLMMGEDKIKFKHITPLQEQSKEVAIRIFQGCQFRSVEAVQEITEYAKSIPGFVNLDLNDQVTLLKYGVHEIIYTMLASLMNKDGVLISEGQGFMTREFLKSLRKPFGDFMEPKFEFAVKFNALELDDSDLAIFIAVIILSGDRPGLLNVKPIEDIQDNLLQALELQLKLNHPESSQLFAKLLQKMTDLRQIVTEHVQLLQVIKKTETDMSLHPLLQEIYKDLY

[3] = target: T3, Peroxisome proliferator-activated receptor alpha (Homo sapiens, UniProt Q07869); experiment: Agonist activity at yeast Gal4-fused human PPARalpha LBD transfected in human HepG2 cells assessed as transactivation by measuring beta-galactosidase activity incubated for 20 hrs by luminometry; type: cell-based
T3 sequence (Q07869 whole entry): T1 sequence (whole entry)

[4] = target: T4, Peroxisome proliferator-activated receptor (Homo sapiens) (UniProt P37231+Q07869+Q03181); experiment: Agonist activity at PPAR in oleic acid-induced steatosis in human HepaRG cells assessed as increase in FABP1 mRNA levels at 100 uM treated for 24 hrs by RT-qPCR analysis; type: cell-based; details: filed as agonist
[5] = tested on: C2C12; experiment: Induction of 2-NBD-glucose uptake in mouse C2C12 cells at 25 uM incubated in starvation medium with replacement of fresh medium for every 24 hrs for 96 hrs followed by 2-NBD-glucose treatment for 3 hrs by flow cytometric analysis; type: functional, cell-based; details: time 99.0 hrs
[6] = tested on: C2C12; experiment: Induction of 2-NBD-glucose uptake in mouse C2C12 cells at 25 uM incubated in starvation medium with replacement of fresh medium for every 24 hrs for 96 hrs followed by insulin stimulation for 30 mins followed by 2-NBD-glucose treatment for 3 hrs by flow cytometric analysis; type: functional, cell-based; details: time 99.5 hrs
[7] = target: T4, Peroxisome proliferator-activated receptor (Homo sapiens); experiment: Agonist activity at PPAR in oleic acid-induced steatosis in human HepaRG cells assessed as increase in HMGCS2 mRNA levels at 100 uM treated for 24 hrs by RT-qPCR analysis; type: cell-based; details: filed as agonist
[8] = tested on: HepaRG; experiment: Reduction of lipid accumulation in oleic acid-induced steatosis in human HepaRG cells at 100 uM treated for 2 weeks with media replenishment along with compound and inducer for every 2 days by spectrophotometry; type: functional, cell-based
[9] = target: T4, Peroxisome proliferator-activated receptor (Homo sapiens); experiment: Agonist activity at PPAR in oleic acid-induced steatosis in human HepaRG cells assessed as increase in FGF21 mRNA levels at 100 uM treated for 24 hrs by RT-qPCR analysis; type: cell-based; details: filed as agonist
[10] = target: T4, Peroxisome proliferator-activated receptor (Homo sapiens); experiment: Agonist activity at PPAR in oleic acid-induced steatosis in human HepaRG cells assessed as increase in FGF21 mRNA levels at 100 uM treated for 2 weeks with media replenishment along with compound and inducer for every 2 days by RT-qPCR analysis; type: cell-based; details: filed as agonist
[11] = target: T4, Peroxisome proliferator-activated receptor (Homo sapiens); experiment: Agonist activity at PPAR in oleic acid-induced steatosis in human HepaRG cells assessed as increase in PDK4 mRNA levels at 100 uM treated for 24 hrs by RT-qPCR analysis; type: cell-based; details: filed as agonist
[12] = tested on: HepaRG; experiment: Reduction of lipid accumulation in oleic acid-induced steatosis in human HepaRG cells at 100 uM treated for 24 hrs by Oil Red O staining based microscopy; type: functional, cell-based
[13] = target: T5, Peroxisome proliferator-activated receptor delta (Homo sapiens, UniProt Q03181); experiment: Agonist activity at yeast Gal4-fused human PPARdelta transfected in human HepG2 cells assessed as transactivation by measuring beta-galactosidase activity incubated for 20 hrs by luminometry; type: cell-based
T5 sequence (Q03181 whole entry): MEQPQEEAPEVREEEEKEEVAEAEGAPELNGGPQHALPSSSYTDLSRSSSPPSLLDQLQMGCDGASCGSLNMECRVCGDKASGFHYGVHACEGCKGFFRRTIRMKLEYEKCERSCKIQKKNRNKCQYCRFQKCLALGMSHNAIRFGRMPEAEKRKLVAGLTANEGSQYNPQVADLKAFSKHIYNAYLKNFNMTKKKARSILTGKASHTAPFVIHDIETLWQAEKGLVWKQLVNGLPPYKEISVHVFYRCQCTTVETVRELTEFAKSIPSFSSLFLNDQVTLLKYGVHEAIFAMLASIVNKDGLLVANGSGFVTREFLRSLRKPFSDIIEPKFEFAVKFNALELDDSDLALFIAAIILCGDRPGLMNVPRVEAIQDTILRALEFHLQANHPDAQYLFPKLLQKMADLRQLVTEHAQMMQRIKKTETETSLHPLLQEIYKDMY

[14] = tested on: HepaRG; experiment: Reduction of lipid accumulation in oleic acid-induced steatosis in human HepaRG cells at 100 uM treated for 2 weeks with media replenishment along with compound and inducer for every 2 days by Oil Red O staining based microscopy; type: functional, cell-based
[15] = target: T4, Peroxisome proliferator-activated receptor (Homo sapiens); experiment: Agonist activity at PPAR in oleic acid-induced steatosis in human HepaRG cells assessed as increase in liver CPT1a mRNA levels at 100 uM treated for 2 weeks with media replenishment along with compound and inducer for every 2 days by RT-qPCR analysis; type: cell-based; details: filed as agonist
[16] = Permeability of compound in human Caco-2 cells; type: ADME, cell-based
[17] = tested on: HepaRG; experiment: Reduction of lipid accumulation in oleic acid-induced steatosis in human HepaRG cells at 100 uM treated for 24 hrs by spectrophotometry; type: functional, cell-based
[18] = target: T4, Peroxisome proliferator-activated receptor (Homo sapiens); experiment: Agonist activity at PPAR in oleic acid-induced steatosis in human HepaRG cells assessed as increase in HMGCS2 mRNA levels at 100 uM treated for 2 weeks with media replenishment along with compound and inducer for every 2 days by RT-qPCR analysis; type: cell-based; details: filed as agonist
[19] = target: T4, Peroxisome proliferator-activated receptor (Homo sapiens); experiment: Agonist activity at PPAR in oleic acid-induced steatosis in human HepaRG cells assessed as increase in FABP1 mRNA levels at 100 uM treated for 2 weeks with media replenishment along with compound and inducer for every 2 days by RT-qPCR analysis; type: cell-based; details: filed as agonist
[20] = tested on: HepaRG; experiment: Reduction of lipid accumulation in oleic acid-induced steatosis in human HepaRG cells at 250 uM treated for 2 weeks with media replenishment along with compound and inducer for every 2 days by Oil Red O staining based microscopy; type: functional, cell-based
[21] = tested on: HepaRG; experiment: Reduction of lipid accumulation in oleic acid-induced steatosis in human HepaRG cells at 250 uM treated for 2 weeks with media replenishment along with compound and inducer for every 2 days by spectrophotometry; type: functional, cell-based
[22] = tested on: HepaRG; experiment: Reduction of lipid accumulation in oleic acid-induced steatosis in human HepaRG cells at 10 uM treated for 2 weeks with media replenishment along with compound and inducer for every 2 days by Oil Red O staining based microscopy; type: functional, cell-based
[23] = tested on: HepaRG; experiment: Reduction of lipid accumulation in oleic acid-induced steatosis in human HepaRG cells at 10 uM treated for 2 weeks with media replenishment along with compound and inducer for every 2 days by spectrophotometry; type: functional, cell-based

Structure (SMILES)	Emax ([1]; filed as agonist)	EC50 [2]	EC50 [3]	further results
CC(C)(C)OC(=O)NC(COCc1ccc(C(=O)c2ccccc2)cc1)C(=O)O (stereo not given)	49%	20 µM	12.1 µM	–
CC(C)(C)OC(=O)N[C@@H](CSCc1ccc(C(=O)c2ccccc2)cc1)C(=O)O	108%	8.4 µM	1.6 µM	Activity [4]: Active; Activity [5]: Active; Activity [6]: Active; Activity [7]: Active; Activity [8]: Active; Activity [9]: Active; Activity [10]: Active; Activity [11]: Active; Activity [12]: Active; EC50 [13]: 28 µM; Activity [14]: Active; Activity [15]: Active; permeability [16]: Permeable; Activity [17]: Active; Activity [18]: Active; Activity [19]: Active
CC(C)(C)OC(=O)NC(CSCc1ccc(Cc2ccccc2)cc1)C(=O)O (stereo not given)	64%	3.4 µM	0.58 µM	–
O=C(NC(CSCc1ccc(Cc2ccc(Cl)cc2)cc1)C(=O)O)OCc1ccccc1 (stereo not given)	165%	–	0.016 µM	–
CC(C)(C)OC(=O)NC(CSCc1ccccc1)C(=O)O (stereo not given)	118%	25.7 µM	1.45 µM	–
O=C(NC(CSCc1ccc(C(=O)c2ccccc2)cc1)C(=O)O)OCc1ccccc1 (stereo not given)	90%	7.9 µM	1.9 µM	–
CC(C)(C)OC(=O)NC(CSCc1ccc(C(=O)c2ccc([N+](=O)[O-])cc2)cc1)C(=O)O (stereo not given)	103%	12.8 µM	4.8 µM	–
CC(C)(C)OC(=O)NC(CSCc1ccc(C(=O)c2ccccc2)cc1)C(=O)O (stereo not given)	83%	10.3 µM	1.6 µM	EC50 [13]: 37.1 µM
CC(SCc1ccccc1)C(NC(=O)c1ccccc1)C(=O)O (stereo not given)	48%	–	9.1 µM	–
CC(C)(C)OC(=O)NC(CSCc1ccc(/C=C/C(=O)c2ccccc2)cc1)C(=O)O (stereo not given)	94%	10.2 µM	0.8 µM	–
CC(C)(C)OC(=O)NC(CSCc1ccc(-c2ccccc2)cc1)C(=O)O (stereo not given)	108%	3.9 µM	0.71 µM	–
O=C(Cc1ccccc1)NC(CSCc1ccccc1)C(=O)O (stereo not given)	148%	10.9 µM	2.55 µM	–
Cc1ccc(C(=O)c2ccc(CSCC(NC(=O)OC(C)(C)C)C(=O)O)cc2)cc1 (stereo not given)	89%	4.6 µM	0.94 µM	–
CC(C)(C)OC(=O)NC(COCc1ccc(-c2ccccc2)cc1)C(=O)O (stereo not given)	100%	13 µM	7.2 µM	–
CC(C)(C)OC(=O)NC(CSCc1ccc(C(=O)c2ccc(C(F)(F)F)cc2)cc1)C(=O)O (stereo not given)	77%	2.2 µM	0.25 µM	–
CC(C)OC(=O)C(C)(C)Oc1ccc(C(=O)c2ccc(Cl)cc2)cc1	–	–	–	Activity [20]: Active; Activity [21]: Active
COc1ccc(C(=O)c2ccc(CSCC(NC(=O)OC(C)(C)C)C(=O)O)cc2)cc1 (stereo not given)	99%	7.5 µM	0.38 µM	–
CC(C)(C)OC(=O)NC(CSCc1ccc(C(=O)c2ccc(Cl)cc2)cc1)C(=O)O (stereo not given)	95%	3.2 µM	0.37 µM	–
O=C(NC(CSCc1ccc(C(=O)c2ccccc2)cc1)C(=O)O)c1ccccc1 (stereo not given)	–	–	–	Emax [1]: 21%
O=C(NC(CSCc1ccc(-c2ccc(Cl)cc2)cc1)C(=O)O)OCc1ccccc1 (stereo not given)	138%	–	0.135 µM	–
CN(CCOc1ccc(CC2SC(=O)NC2=O)cc1)c1ccccn1 (stereo not given)	–	–	–	Activity [22]: Active; Activity [23]: Active
CC(C)(C)OC(=O)NC(COCc1ccc(Cc2ccccc2)cc1)C(=O)O (stereo not given)	52%	–	10 µM	–

From ChEMBL document CHEMBL5154813 (Eur J Med Chem, 2022)
